Measurements published in patent EP0502418A1, “Use of levemopamil for the manufacture of a medicament for the treatment of alcohol abuse” (priority 1991, dated 1992).

Legend:
[1] = tested on: alcohol preferring Wistar rats; assay: Alcohol, water, total fluid and food intake in alcohol preferring (P) rats, single dose level (Example 5); assay type: in vivo
Protocol: Levemopamil was administered in eight selectively-bred adult male alcohol preferring Wistar rats (hereinafter "P") obtained from the Indiana Alcohol Research Center at the University of Indiana School of Medicine.
These lines of rats have been developed genetically through selected breeding by Lumeng et al., New strains of rats with alcohol preference and nonpreference. In: Thurman et al., Eds. Alcohol and Aldehyde Metabolizing Systems. Vol. 3. New York: Academic Press, 1977. pp. 537-544. The P rats prefer to drink at least 5g/Kg body weight/day of a 10% (v/v) ethanol solution in a free-choice situation with food and water available. These rats have been widely used as an animal model of alcoholism. See, Tabakoff et al., Biochemical Pharmacology of Alcohol. Meltzer, Ed. In: Psychopharmacology: The Third Generation of Progress. New York: Raven Press, 1978. pp.1521-1526.
The criteria for classification of P rats was that the average daily intake of ethanol (10%v/v) in P rats should be equal or greater than 5g/Kg body weight/day and the ethanol to water intake ratio should be equal or greater than 2:1.
After establishing a stable baseline for alcohol and water intake, Each animal was injected twice (9:30 and 16:30 hours) with a 10 mg/Kg dosage of levemopamil or an equal volume of the vehicle. Water, alcohol and food intake were monitored.

[2] = tested on: P rats; assay: Alcohol and water intake in P rats, three doses of levemopamil (Example 6); assay type: in vivo
Protocol: Levemopamil and a vehicle were administered in eight P rats obtained from the Indiana Alcohol Research Center at the University of Indiana School of Medicine, as described in Example 5. After establishing a stable baseline for alcohol and water intake, Each animal was injected twice (9:15 and 16:00 hours) with either one of three doses of levemopamil (3.3, 10, and 20 mg/Kg) or an equal volume of the vehicle (a solution of 1 ml absolute ethanol and 4 ml distilled water. Water and alcohol intake were monitored. The amount of alcohol and water intake was recorded twice daily before each administration of vehicle or levemopamil and continued during the drug washout periods.

[3] = compared with verapamil; cited from earlier work
[4] = in vivo; cited from earlier work

CC(C)C(C#N)(CCCN(C)CCc1ccccc1)c1ccccc1 (centres unmarked) [levemopamil, 2-isopropyl-5-(methylphenethylamino)-2-phenylvaleronitrile]
alcohol intake or consumption ([1]; 10 mg/Kg injected twice (9:30 and 16:30 hours), vs baseline and vehicle, Figure 1): significantly attenuated
food intake ([1]; 10 mg/Kg injected twice, Figure 4): unaffected
water intake ([1]; 10 mg/Kg injected twice, vs vehicle and base-line, Figure 2): significantly increased
Total fluid intake ([1]; 10 mg/Kg injected twice, vs vehicle and base-line, Figure 3): decreased
intake of ethanol ([2]; 10mg/Kg and 20 mg/Kg twice daily over one day, vs vehicle and base-line, Figure 5): significantly reduced
intake of water ([2]; 10mg/Kg and 20 mg/Kg twice daily over one day, vs vehicle and base-line, Figure 6): significantly increased
Alcohol intake during the drug washout periods ([2]; drug washout periods after dosing): returned to base-line levels
ethanol intake ([2]; low dose 3.3mg/Kg, injected twice, Figure 5): did not induce a significant change
water intake ([2]; low dose 3.3mg/Kg, injected twice, Figure 6): did not induce a significant change
cerebral availability [3]: significantly higher than that of the comparison compound verapamil
passage of the blood/brain barrier by brain uptake index (BUI) [4]: more rapidly and in considerably larger amounts than does verapamil
